Patent US11965126B2, “Flame retardant for thermosetting resin including aromatic phosphoric acid ester, thermosetting resin composition including same, and cured material and application of same” (priority 2018, dated 2024)
Read-outs that look alike come from different tables or passages of the source.

Assay: Solvent solubility of flame retardants
Format: physicochemical
Conditions: for Solvent solubility compared with FR4 and FR5: comparison with traditionally-known phosphorus-type flame retardants FR4 and FR5
Description: 5 g of a flame retardant was added repeatedly to 100 mL of the following respective solvents at a temperature of 20° C. until the undissolved flame retardant was detected; and a largest amount of the flame retardant dissolved was measured. This largest amount was considered to be solvent solubility. • Solvents: toluene, methyl ethyl ketone (MEK), and propylene glycol monomethyl ether (PM) Materials for Synthesizing Aromatic Phosphoric Acid Esters
Flame retardants FR1 to FR4 as the flame retardants for thermosetting resin were evaluated for solvent solubility by the above method.

[1] = methyl ethyl ketone, 20° C., largest amount dissolved, added in 5 g portions
[2] = propylene glycol monomethyl ether, 20° C., largest amount dissolved, added in 5 g portions
[3] = toluene, 20° C., largest amount dissolved, added in 5 g portions

## O=[PH]1Oc2ccccc2-c2ccccc21 (centres unmarked) [FR5, 9,10-dihydro-9-oxa-10-phosphaphenanthrene-10-oxide, reference compound]
[1]
  Solvent solubility, MEK: 5 g/100 mL
[2]
  Solvent solubility, PM: 15 g/100 mL
[3]
  Solvent solubility, Toluene: <5 g/100 mL

## Cc1cccc(C)c1OP(=O)(Oc1ccc(C2(c3ccc(OP(=O)(Oc4c(C)cccc4C)Oc4c(C)cccc4C)cc3)CC(C)CC(C)(C)C2)cc1)Oc1c(C)cccc1C (centres unmarked) [FR1]
  Solvent solubility compared with FR4 and FR5: superior in solvent solubility
[1]
  Solvent solubility, MEK: 135 g/100 mL
[2]
  Solvent solubility, PM: 85 g/100 mL
[3]
  Solvent solubility, Toluene: 140 g/100 mL

## Cc1cccc(C)c1OP(=O)(Oc1cccc(OP(=O)(Oc2c(C)cccc2C)Oc2c(C)cccc2C)c1)Oc1c(C)cccc1C [FR3, 1,3-phenylenebis(di-2,6-xylyl phosphate), reference compound]
  Solvent solubility, MEK: 55 g/100 mL
  Solvent solubility, PM: 10 g/100 mL
  Solvent solubility, Toluene: 75 g/100 mL

## Cc1cccc(C)c1OP(=O)(Oc1ccc(C2(c3ccc(OP(=O)(Oc4c(C)cccc4C)Oc4c(C)cccc4C)cc3)CCCCCCCCCCC2)cc1)Oc1c(C)cccc1C [FR2]
  Solvent solubility compared with FR4 and FR5: superior in solvent solubility
[1]
  Solvent solubility, MEK: 50 g/100 mL
[2]
  Solvent solubility, PM: 10 g/100 mL
[3]
  Solvent solubility, Toluene: 130 g/100 mL
